Reference: patent publication US6713490B2, “3,4-dihydroquinolin-2(1H)-one compounds as NR2B receptor antagonists” (Pfizer, Inc., priority 2002, dated 2004)
Where a name gives a salt, the structure may show the parent alone.

Key:
NR2B = NR2B (Homo sapiens, UniProt Q05586+Q13224); experiment: Functional activity (method not described); assay type: cell-based
NR2B subunit = target: T1, NR2B subunit (Rattus norvegicus, UniProt P35439+Q00960); experiment: NR2B binding assay ([3H]-CP-98,113 competition, rat forebrain P2 membrane); conditions: 5 nM [3H]-CP-98,113, rat forebrain P2 membrane
T1 construct: Membranes were prepared by homogenization of forebrain of male CD rats; from tissue; host or cells: rat forebrain P2 membrane
Experimental: The activity of the 3,4-dihydroquinolin-2(1H)-one compounds of the present invention, as NR2B antagonists, is determined by their ability to inhibit the binding of NR2B subunit at its receptor sites employing radioactive ligands.
The NR2B antagonist activity of the 3,4-dihydroquinolin-2(1H)-one compounds is evaluated by using the standard assay procedure described in, for example, J. Pharmacol., 331, pp117-126, 1997. […] More specifically, the assay is carried out as follows.
Membranes were prepared by homogenization of forebrain of male CD rats weighing between 170˜190 g by using glass-Teflon homogenizer in 0.32 M sucrose at 4° C. […]
For the saturation assay, receptor saturation was determined by incubating [^3H]-CP-98,113 and 50 μg protein of P2 membrane for 60 minutes at room temperature in a final 100 μl of incubation buffer (50 mM Tris HCl, pH7.4). Total and non-specific bindings (in the presence of 10 μM of unlabeled CP-98,113) were determined in a range of [^3H]-CP-98113 concentrations (0.625 nM to 60 nM). […]
For the competition assay, test compounds were incubated in duplicate with 5 nM [^3H]-CP-98,113 and 50 μg protein of P2 membrane for 60 minutes at room temperature in a final 100 μl of 50 mM Tris HCl buffer (pH7.4). Nonspecific binding was determined by 10 μM of unlabeled CP-98,113 (25 μl). […]

HERG potassium channel = target: T2, HERG potassium channel (Homo sapiens, UniProt Q12809); experiment: Dofetilide binding assay ([3H]-dofetilide competition, membranes of HEK-293 cells expressing the HERG product)
T2 construct: expressed in transfected cells; host or cells: HEK-293
T2 sequence (Q12809 whole entry): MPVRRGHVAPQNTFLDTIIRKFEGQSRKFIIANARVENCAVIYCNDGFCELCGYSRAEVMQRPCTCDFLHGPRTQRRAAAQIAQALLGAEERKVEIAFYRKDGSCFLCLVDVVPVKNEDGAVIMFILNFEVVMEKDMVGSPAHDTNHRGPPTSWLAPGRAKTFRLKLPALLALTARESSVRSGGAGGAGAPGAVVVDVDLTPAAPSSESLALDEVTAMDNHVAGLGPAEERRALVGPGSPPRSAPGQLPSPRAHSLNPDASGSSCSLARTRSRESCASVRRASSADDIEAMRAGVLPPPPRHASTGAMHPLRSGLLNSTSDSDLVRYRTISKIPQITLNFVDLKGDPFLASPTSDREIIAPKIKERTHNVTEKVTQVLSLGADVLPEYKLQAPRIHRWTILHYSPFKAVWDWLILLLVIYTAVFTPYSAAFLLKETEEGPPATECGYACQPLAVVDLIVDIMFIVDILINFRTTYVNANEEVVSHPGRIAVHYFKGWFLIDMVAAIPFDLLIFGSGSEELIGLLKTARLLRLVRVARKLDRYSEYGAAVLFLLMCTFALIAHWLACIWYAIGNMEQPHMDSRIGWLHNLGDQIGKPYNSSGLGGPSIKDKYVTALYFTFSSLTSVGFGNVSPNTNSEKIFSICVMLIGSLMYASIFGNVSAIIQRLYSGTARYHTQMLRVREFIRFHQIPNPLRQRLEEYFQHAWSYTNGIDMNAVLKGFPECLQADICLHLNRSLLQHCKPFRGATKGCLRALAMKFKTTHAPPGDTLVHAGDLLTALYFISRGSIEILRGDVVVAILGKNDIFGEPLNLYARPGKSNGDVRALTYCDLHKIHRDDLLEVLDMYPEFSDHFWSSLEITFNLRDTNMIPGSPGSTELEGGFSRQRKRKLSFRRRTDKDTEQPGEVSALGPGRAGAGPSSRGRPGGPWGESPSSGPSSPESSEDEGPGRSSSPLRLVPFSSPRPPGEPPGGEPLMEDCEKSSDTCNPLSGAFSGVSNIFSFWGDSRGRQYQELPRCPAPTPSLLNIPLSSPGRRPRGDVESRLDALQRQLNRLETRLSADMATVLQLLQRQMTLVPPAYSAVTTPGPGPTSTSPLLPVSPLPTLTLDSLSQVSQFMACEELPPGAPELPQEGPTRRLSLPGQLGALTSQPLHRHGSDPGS

T1 sequence (Q00960 27-1482, other chains not shown): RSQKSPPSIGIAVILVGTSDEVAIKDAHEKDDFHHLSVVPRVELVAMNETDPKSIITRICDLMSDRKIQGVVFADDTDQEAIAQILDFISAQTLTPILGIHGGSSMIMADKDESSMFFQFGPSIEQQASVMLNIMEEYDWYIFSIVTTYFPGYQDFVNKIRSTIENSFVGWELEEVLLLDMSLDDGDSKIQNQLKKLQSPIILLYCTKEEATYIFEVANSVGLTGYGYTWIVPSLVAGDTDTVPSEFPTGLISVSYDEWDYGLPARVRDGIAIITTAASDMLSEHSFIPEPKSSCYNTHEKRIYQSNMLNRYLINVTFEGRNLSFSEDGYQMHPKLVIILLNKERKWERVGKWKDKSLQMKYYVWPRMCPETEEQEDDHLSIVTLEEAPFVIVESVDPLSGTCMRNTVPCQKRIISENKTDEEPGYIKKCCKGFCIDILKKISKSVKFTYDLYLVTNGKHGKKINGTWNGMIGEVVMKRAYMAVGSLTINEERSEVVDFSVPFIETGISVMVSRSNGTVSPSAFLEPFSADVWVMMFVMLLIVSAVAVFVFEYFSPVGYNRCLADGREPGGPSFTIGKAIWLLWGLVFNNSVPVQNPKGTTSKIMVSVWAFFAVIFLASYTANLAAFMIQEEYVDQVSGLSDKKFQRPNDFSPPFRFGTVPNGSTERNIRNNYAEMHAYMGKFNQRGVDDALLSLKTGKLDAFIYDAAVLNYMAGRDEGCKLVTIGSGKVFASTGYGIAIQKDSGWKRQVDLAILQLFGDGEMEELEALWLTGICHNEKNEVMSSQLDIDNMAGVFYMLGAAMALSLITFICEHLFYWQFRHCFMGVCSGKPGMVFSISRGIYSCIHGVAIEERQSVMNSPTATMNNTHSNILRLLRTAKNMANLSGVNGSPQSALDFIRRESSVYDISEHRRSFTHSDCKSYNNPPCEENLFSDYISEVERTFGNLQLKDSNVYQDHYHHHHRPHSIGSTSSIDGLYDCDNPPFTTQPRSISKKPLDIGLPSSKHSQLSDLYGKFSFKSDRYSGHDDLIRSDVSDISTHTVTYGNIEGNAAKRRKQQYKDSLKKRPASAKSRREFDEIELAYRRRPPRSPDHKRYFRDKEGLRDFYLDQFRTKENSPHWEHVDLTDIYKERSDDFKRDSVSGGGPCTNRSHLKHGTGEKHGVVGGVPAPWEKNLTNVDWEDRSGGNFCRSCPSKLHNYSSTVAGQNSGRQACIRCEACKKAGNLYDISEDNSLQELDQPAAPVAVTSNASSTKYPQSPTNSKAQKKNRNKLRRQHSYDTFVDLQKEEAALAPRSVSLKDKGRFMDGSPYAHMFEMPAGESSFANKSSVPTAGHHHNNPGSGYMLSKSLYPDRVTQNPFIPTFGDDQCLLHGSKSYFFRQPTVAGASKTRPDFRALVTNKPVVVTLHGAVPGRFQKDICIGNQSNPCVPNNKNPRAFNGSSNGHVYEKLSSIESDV
NR2B, sequence (Q13224 27-1484, species assumed, other chains not shown): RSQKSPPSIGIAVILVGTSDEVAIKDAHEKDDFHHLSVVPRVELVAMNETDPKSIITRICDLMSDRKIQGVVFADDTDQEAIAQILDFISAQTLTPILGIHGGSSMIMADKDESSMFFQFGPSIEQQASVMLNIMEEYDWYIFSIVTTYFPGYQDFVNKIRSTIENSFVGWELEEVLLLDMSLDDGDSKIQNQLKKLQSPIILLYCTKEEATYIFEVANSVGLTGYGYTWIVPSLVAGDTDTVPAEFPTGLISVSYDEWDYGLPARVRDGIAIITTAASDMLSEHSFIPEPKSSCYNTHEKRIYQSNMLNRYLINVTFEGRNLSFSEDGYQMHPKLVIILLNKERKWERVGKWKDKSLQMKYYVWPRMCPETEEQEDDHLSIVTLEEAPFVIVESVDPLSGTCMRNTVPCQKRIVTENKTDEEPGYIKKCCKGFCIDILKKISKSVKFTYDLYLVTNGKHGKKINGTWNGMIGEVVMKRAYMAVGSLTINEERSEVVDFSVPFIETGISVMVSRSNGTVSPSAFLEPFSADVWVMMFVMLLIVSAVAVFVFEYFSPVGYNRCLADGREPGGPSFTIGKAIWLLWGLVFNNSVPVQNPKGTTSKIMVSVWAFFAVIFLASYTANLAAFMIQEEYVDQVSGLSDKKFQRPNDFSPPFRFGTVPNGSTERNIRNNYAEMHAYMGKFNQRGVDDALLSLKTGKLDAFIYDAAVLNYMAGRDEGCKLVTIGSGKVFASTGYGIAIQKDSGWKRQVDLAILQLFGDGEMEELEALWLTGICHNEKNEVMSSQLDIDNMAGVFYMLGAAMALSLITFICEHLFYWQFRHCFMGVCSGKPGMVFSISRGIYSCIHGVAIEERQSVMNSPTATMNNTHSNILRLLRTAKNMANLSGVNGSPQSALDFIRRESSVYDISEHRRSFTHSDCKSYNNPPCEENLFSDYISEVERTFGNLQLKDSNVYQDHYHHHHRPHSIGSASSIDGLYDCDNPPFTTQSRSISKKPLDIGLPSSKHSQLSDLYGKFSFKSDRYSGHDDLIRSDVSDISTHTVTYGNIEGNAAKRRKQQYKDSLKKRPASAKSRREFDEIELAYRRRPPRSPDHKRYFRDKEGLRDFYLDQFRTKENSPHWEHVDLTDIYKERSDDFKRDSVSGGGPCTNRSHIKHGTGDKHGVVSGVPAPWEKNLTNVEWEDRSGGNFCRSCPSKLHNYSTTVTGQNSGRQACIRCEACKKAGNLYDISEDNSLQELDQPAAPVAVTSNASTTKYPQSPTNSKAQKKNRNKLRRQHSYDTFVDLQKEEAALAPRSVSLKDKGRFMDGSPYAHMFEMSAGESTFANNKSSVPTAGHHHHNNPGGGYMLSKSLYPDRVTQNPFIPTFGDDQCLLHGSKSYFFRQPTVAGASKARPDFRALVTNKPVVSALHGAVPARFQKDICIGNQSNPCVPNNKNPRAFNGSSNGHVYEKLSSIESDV

SMILES | IC50 (NR2B) [µM] | Ki (NR2B subunit) [µM] | melting point | also measured
C[C@H]([C@H](O)c1ccc2c(c1)CCC(=O)N2)N1CCC(O)(c2ccccc2)CC1 | 0.0224 | – | – | –
O=C1CCc2cc([C@@H](O)CN3CCC(O)(c4cccc(F)c4)CC3)ccc2N1 | 0.0119 | 0.0035 | – | Ki (HERG potassium channel; 5 nM [3H]-dofetilide, HERG homogenate of HEK-293 cells): 8.3 µM; TI (Defetilide/NR2B) (HERG potassium channel; TI = Dofetilide Binding Ki [μM]/NR2B Binding Ki [nM] x 1000): 2400
CS(=O)(=O)O.O=C1CCc2cc([C@@H](O)CN3CCC(O)(c4cccc(F)c4)CC3)ccc2N1 | – | – | 180 to 182 °C | –
COc1cccc(C2(O)CCN(CC(O)c3ccc4c(c3)CCC(=O)N4)CC2)c1 (stereo not drawn) (as salt: hydrochloride) [Example 2, 6-{1-Hydroxy-2-[4-hydroxy-4-(3-methoxyphenyl)-1-piperidinyl]ethyl}-3,4-dihydroquinolin-2(1H)-one Hydrochloride] | – | – | 246.9 °C | –
Cc1cccc(C2(O)CCN(CC(O)c3ccc4c(c3)CCC(=O)N4)CC2)c1 (stereo not drawn) (as salt: mesylate) [Example 4, 6-[1-Hydroxy-2-[4-hydroxy-4-(3-methylphenyl)piperidin-1-yl]ethyl]-3,4-dihydroquinolin-2(1H)-one mesylate] | – | – | 98 to 100 °C (dec.) | –
C[C@H]([C@H](O)c1ccc2c(c1)CCC(=O)N2)N1CCC(O)(c2ccc(F)cc2)CC1 [reference compound] | – | 0.007 | – | –
